Experimental data reported in patent US20110028758A1, “Trans-cinnamic acid derivative, its preparation mathod and the use” (priority 2007, published 2011).
Converted amounts (≈) assume the structure as drawn. “Also recorded” adds a separate entry of the source. Like-named read-outs stand apart in the source and are kept apart here.

Columns and labels:
[1] = system: human normal embryonic kidney HEK-293 cells; experiment: MTT test on normal cells, HEK-293; type: cell-based; conditions: for IC50: Homo sapiens; for inhibitory effect on HEK-293 cells: at concentrations having 50% inhibitory effect on the tumor cells
Description: (§1) A complete culture medium is used for diluting the above original solution into corresponding concentrations for later use.
(§2) Human cervical carcinoma Hela cells, human hepatoma BEL-7402 cells, mucinous Human epidermoid A549 lung cancer cells, human breast cancer MCF-7/S cells, human glioma U251 cells, and human normal embryonic kidney HEK-293 cells are purchased from USA, American Type Culture Collection (ATCC). All the tumor cells are used the DMEM medium (containing 10% FBS, 100 U/ml penicillin and 100 μg/ml streptomycin) for culturing and subculturing, and HEK-293 cells are using RPMI1640 medium (10% FBS, 100 U/ml penicillin, and 100 μg/ml streptomycin) for culturing and subculturing, wherein the culture condition is in a 5% CO2 incubator at 37° C.
Subculture six kinds of cells, which has a logarithmic growing period, adherent rate about 80%, and in good condition, such as human cervical carcinoma Hela cells, human hepatoma BEL-7402 cells, mucinous Human epidermoid A549 lung cancer cells, human breast cancer MCF-7/S cells, human glioma U251 cells, and human normal embryonic kidney HEK-293 cells. […] Repeat the above experiment three times to get an average value.
(§3) IR %=(1−ODsampale/ODcontrol)×100%

[2] = single tail vein administration 350 mg/kg; for death / survival in acute toxicity test: 14 days observation, 350 mg/kg
Description: After the drug delivery, continuously observe the mice responses for 4 hours; after all, observe the mice twice a day (one is in the morning, and the other is in the afternoon) for 14 days, wherein the observation includes the appearance, behavior, secretions, excreta of the mice etc., and recording all the death situation, poisoning symptoms, the starting time and ending time of toxic reactions of the mice, severity, duration time of toxic, and to see if it is reversible reaction etc., sent it to the pathology examination if necessary, weight the mice before and after the drug delivered day of 3, 7, 10, and 14 days. After finishing the observation process, execute all of the mice, and anatomize the dead bodies of mice.

human glioma U251 cells = experiment: MTT anti-tumor test in vitro, U251; type: cell-based; conditions: Homo sapiens, U-251, 48 h
Description: as §1, §2
(§4) Subculture six kinds of cells, which has a logarithmic growing period, adherent rate about 80%, and in good condition, such as human cervical carcinoma Hela cells, human hepatoma BEL-7402 cells, mucinous Human epidermoid A549 lung cancer cells, human breast cancer MCF-7/S cells, human glioma U251 cells, and human normal embryonic kidney HEK-293 cells. Discard the culture medium, rinse 1-2 times with PBS to remove serum, add 1 ml 0.25% Trypsin-0.01% EDTA (37° C. incubation) to digest for 1-2 minutes, add FBS culture medium to terminate the above digestion, centrifuge at a speed below 800 r/min for 2-3 minutes and discard the supernatant, re-suspended cells in 10% FBS medium, tack the cell suspension liquid for cell counting, adjust the density of the above liquid to 1×10^5/ml, then inoculate to a 96-holes plates (100 μl/hole), and then incubate in 5% CO2 incubator at 37° C. overnight. The next day add above cells to different concentrations of I-a, I-b, I-c and I-d, 100 μl/hole (its final concentration is respectively 30, 60, 120, 240, 480 μg/ml); meanwhile, set up the blank control group (0 μM), and establish 3 holes. Continuing the cultural process, discard the culture medium after 48 hours that the drug has been effected, add 100 μl PBS of 0.5 mg/ml MTT (PH 7.2) into each holes, after 4 hours culture, remove the culture medium by adherent cells express flipping method, add 100 μl of DMSO to each holes, oscillate it by micro-oscillation device for 5 minutes, and measure the OD value at 490 nm wavelength. Repeat the above experiment three times to get an average value. Calculate the inhibition rate (IR %) of the tumor cell proliferation in vitro from different concentrations of I-a, I-b, I-c, I-d by the following formula:
as §3
(§5) Use SPSS11.5 software to calculate the half inhibitory concentration IC50 of I-a, I-b, I-c and I-d. The results are shown in Table 2 to illustrate IC50 values (unit: μg/ml) of the four compounds.

[3] = system: human breast cancer MCF-7/S cells; experiment: MTT anti-tumor test in vitro, MCF-7/S; type: cell-based; conditions: Homo sapiens, MCF7S, 48 h, MCF-7 (MCF-7/S)
Description: as §1, §2, §4, §3, §5

[4] = Solubility of compounds in solvents (Table 1); type: physicochemical
[5] = system: human cervical carcinoma Hela cells; experiment: MTT anti-tumor test in vitro, Hela; type: cell-based; conditions: Homo sapiens, HeLa, 48 h
Description: as §1, §2, §4, §3, §5

[6] = system: mucinous Human epidermoid A549 lung cancer cells; experiment: MTT anti-tumor test in vitro, A549; type: cell-based; conditions: Homo sapiens, A549, 48 h
Description: as §1, §2, §4, §3, §5

[7] = system: human hepatoma BEL-7402 cells; experiment: MTT anti-tumor test in vitro, BEL-7402; type: cell-based; conditions: Homo sapiens, Bel-7402, 48 h, Bel- (BEL-7402)
Description: as §1, §2, §4, §3, §5

[8] = HEK293, 48 h, HEK- (HEK-293), average of three experiments ± SD, MTT, 48 hours, read-out: IC50 value
[9] = HEK293, 48 h, HEK- (HEK-293), experiment 2, MTT, 48 hours, read-out: IC50 value
[10] = HEK293, 48 h, HEK- (HEK-293), experiment 3, MTT, 48 hours, read-out: IC50 value
[11] = HEK293, text, read-out: HEK-293 cells IC50 values
[12] = average of three experiments ± SD
[13] = Hela, average of three experiments ± SD, MTT, 48 hours, read-out: IC50 value
[14] = Hela, experiment 2, MTT, 48 hours, read-out: IC50 value
[15] = Hela, experiment 3, MTT, 48 hours, read-out: IC50 value
[16] = read-out: HeLa cell proliferation IC50 values
[17] = A549, average of three experiments ± SD, MTT, 48 hours, read-out: IC50 value
[18] = A549, experiment 2, MTT, 48 hours, read-out: IC50 value
[19] = A549, experiment 3, MTT, 48 hours, read-out: IC50 value
[20] = at 48 hours, read-out: A549 cell proliferation IC50 values
[21] = HEK293, 48 h, HEK- (HEK-293), experiment 1, MTT, 48 hours, read-out: IC50 value
[22] = Hela, experiment 1, MTT, 48 hours, read-out: IC50 value
[23] = A549, experiment 1, MTT, 48 hours, read-out: IC50 value

SMILES	IC50 [1, 8]	IC50 [1, 9]	IC50 [1, 10]	drug reaction after administration [2]	death / survival in acute toxicity test [2]	IC50 (human glioma U251 cells; [12])	IC50 (human glioma U251 cells; experiment 2)	IC50 (human glioma U251 cells; experiment 3)	IC50 [3, 12]	IC50 ([3]; experiment 2)	IC50 ([3]; experiment 3)	Solubility ([4]; solvent 0.1% NaOH)	Solubility ([4]; solvent Acetone)	Solubility ([4]; solvent Chloroform)	Solubility ([4]; solvent DMSO)	Solubility ([4]; solvent Ethanol)	Solubility ([4]; solvent Methanol)	IC50 [5, 13]	IC50 [5, 14]	IC50 [5, 15]	further results
COc1ccc(/C=C/C(=O)O)c(O)c1CC=C(C)C [I-a, (E)-2-hydroxy-4-methoxy-3-isopentenyl-cinnamic acid]	404 ± 9.2 µg/mL (≈ 1540 µM)	399 µg/mL (≈ 1520 µM)	414 µg/mL (≈ 1580 µM)	abnormally excited at first, and then become in an inhibit state	All the mice are survived; also recorded: no toxic deaths	181 ± 7.98 µg/mL (≈ 691 µM)	173 µg/mL (≈ 660 µM)	180 µg/mL (≈ 686 µM)	225 ± 11.9 µg/mL (≈ 857 µM)	216 µg/mL (≈ 823 µM)	219 µg/mL (≈ 835 µM)	Soluble	Soluble	Dissolved	Soluble	Soluble	Soluble	103 ± 8.48 µg/mL (≈ 391 µM)	115 µg/mL (≈ 438 µM)	96 µg/mL (≈ 366 µM)	IC50 [1, 11]: 404 ± 9.2 µg/mL (≈ 1540 µM); inhibitory effect on HEK-293 cells [1]: unobvious; IC50 [5, 16]: 103 ± 8.48 µg/mL (≈ 391 µM); IC50 [6, 17]: 118 ± 10.6 µg/mL (≈ 451 µM); IC50 [6, 18]: 118 µg/mL (≈ 450 µM); IC50 [6, 19]: 107 µg/mL (≈ 408 µM); IC50 [6, 20]: 118 ± 10.6 µg/mL (≈ 451 µM); IC50 [7, 12]: 249 ± 17.9 µg/mL (≈ 950 µM); IC50 ([7]; experiment 2): 237 µg/mL (≈ 904 µM); IC50 ([7]; experiment 3): 269 µg/mL (≈ 1030 µM)
COc1ccc(/C=C\C(=O)O)c(OC)c1CC=C(C)C [I-b, (Z)-2,4-dimethoxy-3-isopentenyl-cinnamic acid]	365 ± 6.14 µg/mL (≈ 1320 µM)	371 µg/mL (≈ 1340 µM)	366 µg/mL (≈ 1320 µM)	abnormally excited at first, and then become in an inhibit state	All the mice are survived; also recorded: no toxic deaths	287 ± 9.58 µg/mL (≈ 1040 µM)	284 µg/mL (≈ 1030 µM)	298 µg/mL (≈ 1080 µM)	311 ± 7.31 µg/mL (≈ 1130 µM)	317 µg/mL (≈ 1150 µM)	303 µg/mL (≈ 1100 µM)	Soluble	Dissolved	Dissolved	Soluble	Dissolved	Soluble	324 ± 11.6 µg/mL (≈ 1170 µM)	310 µg/mL (≈ 1120 µM)	328 µg/mL (≈ 1190 µM)	IC50 [1, 21]: 358 µg/mL (≈ 1300 µM); IC50 (human glioma U251 cells; experiment 1): 277 µg/mL (≈ 1000 µM); IC50 ([3]; experiment 1): 312 µg/mL (≈ 1130 µM); IC50 [5, 22]: 331 µg/mL (≈ 1200 µM); IC50 [5, 16]: 324 ± 11.6 µg/mL (≈ 1170 µM); IC50 [6, 17]: 218 ± 12.6 µg/mL (≈ 788 µM); IC50 [6, 23]: 230 µg/mL (≈ 832 µM); IC50 [6, 18]: 216 µg/mL (≈ 782 µM); IC50 [6, 19]: 205 µg/mL (≈ 742 µM); IC50 [6, 20]: 218 ± 12.6 µg/mL (≈ 788 µM); IC50 [7, 12]: 346 ± 10.1 µg/mL (≈ 1250 µM); IC50 ([7]; experiment 1): 343 µg/mL (≈ 1240 µM); IC50 ([7]; experiment 2): 357 µg/mL (≈ 1290 µM); IC50 ([7]; experiment 3): 338 µg/mL (≈ 1220 µM)
COc1ccc(/C=C/C(=O)O)c(OC)c1CC=C(C)C [I-c, (E)-2,4-dimethoxy-3-isopentenyl-cinnamic acid]	369 ± 13.6 µg/mL (≈ 1340 µM)	367 µg/mL (≈ 1330 µM)	356 µg/mL (≈ 1290 µM)	abnormally excited at first, and then become in an inhibit state	All the mice are survived; also recorded: no toxic deaths	195 ± 7.31 µg/mL (≈ 704 µM)	192 µg/mL (≈ 695 µM)	188 µg/mL (≈ 680 µM)	235 ± 5.68 µg/mL (≈ 849 µM)	229 µg/mL (≈ 829 µM)	240 µg/mL (≈ 869 µM)	Soluble	Dissolved	Dissolved	Soluble	Dissolved	Soluble	96.2 ± 1.25 µg/mL (≈ 348 µM)	85.6 µg/mL (≈ 310 µM)	97 µg/mL (≈ 351 µM)	IC50 [1, 21]: 383 µg/mL (≈ 1390 µM); IC50 [1, 11]: 369 ± 13.6 µg/mL (≈ 1340 µM); inhibitory effect on HEK-293 cells [1]: unobvious; IC50 (human glioma U251 cells; experiment 1): 202 µg/mL (≈ 731 µM); IC50 ([3]; experiment 1): 234 µg/mL (≈ 847 µM); IC50 [5, 22]: 95 µg/mL (≈ 344 µM); IC50 [5, 16]: 96.2 ± 1.25 µg/mL (≈ 348 µM); IC50 [6, 17]: 158 ± 5.66 µg/mL (≈ 572 µM); IC50 [6, 23]: 151 µg/mL (≈ 546 µM); IC50 [6, 18]: 162 µg/mL (≈ 586 µM); IC50 [6, 19]: 159 µg/mL (≈ 575 µM); IC50 [6, 20]: 158 ± 5.66 µg/mL (≈ 572 µM); IC50 [7, 12]: 313 ± 11.7 µg/mL (≈ 1130 µM); IC50 ([7]; experiment 1): 315 µg/mL (≈ 1140 µM); IC50 ([7]; experiment 2): 300 µg/mL (≈ 1090 µM); IC50 ([7]; experiment 3): 323 µg/mL (≈ 1170 µM)
